Test system: 252836-082-R-J2-PDC tumor spheroids, viability
Assay: Anticancer human tumor 252836-082-R-J2-PDC patient-derived head and neck squamous cell carcinoma cell line growth inhibition [PI3K]
Details: spheroids with HUVEC and MSC; for IC50: curve of first compound; for viability, T/C: stronger effect = lower value
Excerpt: Combinatorial screen of targeted agents with the PI3K inhibitors inavolisib, alpelisib, duvelisib, and copanlisib in multi-cell type tumor spheroids
A high-throughput screen of multi-cell type tumor spheroids was designed to identify active combinations of targeted small molecules and PI3K pathway inhibitors. Complex spheroids include a stromal component modeled by human endothelial cells (HUVEC) and fibroblasts modeled by human mesenchymal stem cells (MSCs). The concentration ranges selected for each drug and investigational agent were based upon clinically achievable concentrations if the clinical Cmax of the agent was known.
Compounds. The drugs and investigational agents: inavolisib (NSC800729), alpelisib (NSC765974), duvelisib (NSC772469), copanlisib (NSC816437), ipatasertib (NSC767898), afuresertib (NSC778305), talazoparib (NSC767125), sapanisertib (NSC764658), selumetinib (NSC741078), tovorafenib (DAY101, NSC766906), vemurafenib (NSC761431), ravoxertinib (NSC781343), sotorasib (NSC818433), MRTX1133 (NSC 836407), abemaciclib (NSC 768073), palbociclib (NSC758247), venetoclax (NSC 766270), SY5609 (NSC837396), enzalutamide (NSC755605), and darolutamide (NSC825331), were obtained from the National Cancer Institute (NCI) Developmental Therapeutics Program Chemical Repository. The FDA-approved anticancer drug set is available from the NCI Developmental Therapeutics Program. […] The stock solutions were prepared in dimethyl sulfoxide (DMSO, Sigma-Aldrich, St. Louis, MO, cat. D2650) at 800-fold the tested concentration and stored at -70 degrees C prior to their use. All drugs and investigational agents were tested over a range starting from a high concentration at or near the clinical Cmax and decreasing in half-log increments. If the clinical Cmax for an agent had not been determined, the highest concentration tested was 10 microM.
Cell Culture. All cells were maintained in an incubator at 37 degrees C and 5% CO2 with 95% humidity. The PDC lines were cultured according to standard operating procedures established by the NCI PDMR (https://pdmr.cancer.gov/sops/default.htm). All PDCs were thawed and cultured in Matrigel-coated flasks prepared with a working solution of 1X Ham's F-12 nutrient mix, without supplementation (Invitrogen, Waltham, MA, cat. 11765054), 100 U/mL penicillin-streptomycin (Invitrogen, cat. 15140122), and 2.5% Matrigel (Corning Inc., Corning, NY, cat. 354248) for the first three passages. The 354836-022-R-J1-PDC, 475296-252-R-J1-PDC, and 997726-040-R-J2-PDC lines were cultured in 6A media, which includes advanced DMEM/F-12 (Thermo Fisher Scientific, cat. 12634028), 10 mM HEPES (Thermo Fisher Scientific, cat. 15630080), 1X GlutaMAX supplement (Thermo Fisher Scientific, cat. 35050061), 0.1 mg/mL primocin (InvivoGen, San Diego, CA, cat. ant-pm-2), 10% defined fetal bovine serum, heat inactivated (HyClone Laboratories Inc., Logan, UT, cat. SH30070.03HI), 50% L-WRN conditioned media (ATCC, cat. CRL-3276), 1.25 mM N-Acetyl-L-cysteine (Sigma-Aldrich, cat. A9165), 10 mM nicotinamide (Sigma-Aldrich, cat. N0636), 1X B-27 supplement (Thermo Fisher Scientific, cat. 17504044), 1X N-2 supplement (Thermo Fisher Scientific, cat. 17502048), and 10 microM Y-27632 dihydrochloride (Tocris Bioscience, Bristol, United Kingdom, cat. 1254). The 624824-186-R-J2-PDC line was cultured in 6C/Colon 1B media, which includes all 6A media components plus 50 ng/mL human EGF recombinant protein (Thermo Fisher Scientific, cat. PHG0311). […]
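Also: spheroids exposed to agents for seven days before readout.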
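For viability, T/C in this document: percent of vehicle DMSO control viability so 100% = untreated growth.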

CC(=O)c1c(C)c2cnc(Nc3ccc(N4CCNCC4)cn3)nc2n(C2CCCC2)c1=O + CC(Nc1ccc2c(c1)OCCn1cc(N3C(=O)OCC3C(F)F)nc1-2)C(N)=O
IC50 (second compound 0.00316 µM): > 100 nM | IC50 (second compound 0.01 µM): > 100 nM | IC50 (second compound 0.0316 µM): > 100 nM | IC50 (second compound 0.1 µM): > 100 nM | IC50 (second compound 0.316 µM): > 100 nM | IC50 (second compound 1 µM): < 0.316 nM | viability, T/C (second compound 0.00316 µM, first compound 0.000316 µM): 102% | viability, T/C (second compound 0.00316 µM, first compound 0.001 µM): 91.6% | viability, T/C (second compound 0.00316 µM, first compound 0.00316 µM): 94.5% | viability, T/C (second compound 0.00316 µM, first compound 0.01 µM): 89.8% | viability, T/C (second compound 0.00316 µM, first compound 0.0316 µM): 98.2% | viability, T/C (second compound 0.00316 µM, first compound 0.1 µM): 105% | viability, T/C (second compound 0.01 µM, first compound 0.000316 µM): 97.1% | viability, T/C (second compound 0.01 µM, first compound 0.001 µM): 84.9% | viability, T/C (second compound 0.01 µM, first compound 0.00316 µM): 93.7% | viability, T/C (second compound 0.01 µM, first compound 0.01 µM): 89.2% | viability, T/C (second compound 0.01 µM, first compound 0.0316 µM): 83.9% | viability, T/C (second compound 0.01 µM, first compound 0.1 µM): 87.9% | viability, T/C (second compound 0.0316 µM, first compound 0.000316 µM): 90.8% | viability, T/C (second compound 0.0316 µM, first compound 0.001 µM): 76.1% | viability, T/C (second compound 0.0316 µM, first compound 0.00316 µM): 74.1% | viability, T/C (second compound 0.0316 µM, first compound 0.01 µM): 70.7% | viability, T/C (second compound 0.0316 µM, first compound 0.0316 µM): 81.4% | viability, T/C (second compound 0.0316 µM, first compound 0.1 µM): 82.4% | viability, T/C (second compound 0.1 µM, first compound 0.000316 µM): 68.8% | viability, T/C (second compound 0.1 µM, first compound 0.001 µM): 68.9% | viability, T/C (second compound 0.1 µM, first compound 0.00316 µM): 69.8% | viability, T/C (second compound 0.1 µM, first compound 0.01 µM): 70.8% | viability, T/C (second compound 0.1 µM, first compound 0.0316 µM): 66.5% | viability, T/C (second compound 0.1 µM, first compound 0.1 µM): 67.5% | viability, T/C (second compound 0.316 µM, first compound 0.000316 µM): 54.9% | viability, T/C (second compound 0.316 µM, first compound 0.001 µM): 53.6% | viability, T/C (second compound 0.316 µM, first compound 0.00316 µM): 65.1% | viability, T/C (second compound 0.316 µM, first compound 0.01 µM): 50.7% | viability, T/C (second compound 0.316 µM, first compound 0.0316 µM): 62.2% | viability, T/C (second compound 0.316 µM, first compound 0.1 µM): 55.7% | viability, T/C (second compound 1 µM, first compound 0.000316 µM): 47.5% | viability, T/C (second compound 1 µM, first compound 0.001 µM): 45.6% | viability, T/C (second compound 1 µM, first compound 0.00316 µM): 41.9% | viability, T/C (second compound 1 µM, first compound 0.01 µM): 42.4% | viability, T/C (second compound 1 µM, first compound 0.0316 µM): 44.9% | viability, T/C (second compound 1 µM, first compound 0.1 µM): 45.1%
